± gives the expanded uncertainty stated by the source.
Experiments:
[1] = 303.15 K, 101.33 kPa, Liquid; for viscosity: Capillary tube (Ostwald / Ubbelohde) method; for speed of sound: Linear variable-path acoustic interferometer; for mass density: Pycnometric method
[2] = xn = mol fraction of the nth substance listed; settings: 303.15 K, 101 kPa, Liquid, x1 = 0.5; for viscosity: Capillary tube (Ostwald / Ubbelohde) method; for speed of sound: Frequency=2 MHz; for mass density: Pycnometric method

Compound	viscosity [1]	speed of sound [1]	mass density [1]	viscosity [2]	speed of sound ([2]; variable-path interferometer)	mass density [2]	speed of sound ([2]; Linear variable-path acoustic interferometer)
CCCCO [butan-1-ol]	2.054 ± 0.21 mPa·s	1228.4 ± 1.9 m/s	804 ± 4 kg/m3				
CCOC(=O)c1ccccc1 [ethyl benzoate]	1.749 ± 0.17 mPa·s	1345.4 ± 2 m/s	1042 ± 4 kg/m3				
CCOC(=O)c1ccccc1 [ethyl benzoate] + CCCO				1.679 ± 0.17 mPa·s	1261.4 ± 1.9 m/s	918.5 ± 4 kg/m3	

Next, values leading:

viscosity [1]	speed of sound [1]	mass density [1]	viscosity [2]	speed of sound ([2]; variable-path interferometer)	mass density [2]	speed of sound ([2]; Linear variable-path acoustic interferometer)	Compound
1.67 ± 0.17 mPa·s	1399.4 ± 2 m/s	1077 ± 4 kg/m3					COC(=O)c1ccccc1 [methyl benzoate]
			1.634 ± 0.16 mPa·s		944.5 ± 4 kg/m3	1296.6 ± 1.9 m/s	COC(=O)c1ccccc1 [methyl benzoate] + CCCO
3.012 ± 0.3 mPa·s	1252.4 ± 1.9 m/s	810 ± 4 kg/m3					CCCCCO [pentan-1-ol]
1.61 ± 0.16 mPa·s	1189.2 ± 1.9 m/s	798 ± 4 kg/m3					CCCO [propan-1-ol]

From the NIST ThermoML archive (doi:10.1016/j.jct.2013.09.005)
